# Like-named read-outs stand apart in the source and are kept apart here.
# Tests used:
# [1] = test system: MRSA ATCC 700699 (NRS1, VISA); assay: MIC/MBC broth microdilution, NRS1 (ATCC 700699); format: cell-based; settings: Staphylococcus aureus
# Experimental: (§1) Determination of minimum inhibitory concentration (MIC). The MICs of the lead thiazole compound (compound 1a) and nine derivatives tested against all 18 MRSA strains were determined, in triplicate samples, using the broth microdilution method in accordance with the recommendations contained in the CLSI guidelines.
# [2] = test system: VISA HIP07256 (NRS19); assay: MIC/MBC broth microdilution, NRS19 (VISA HIP07256); format: cell-based; settings: Staphylococcus aureus
# Experimental: as §1
# [3] = test system: MRSA USA500 (NRS385); assay: MIC/MBC broth microdilution, NRS385 (USA500); format: cell-based; settings: Staphylococcus aureus
# Experimental: as §1
# [4] = test system: MRSA USA400 (NRS123); assay: MIC/MBC broth microdilution, NRS123 (USA400); format: cell-based; settings: Staphylococcus aureus
# Experimental: as §1
# [5] = test system: MRSA NRS384 (USA300); assay: MIC/MBC broth microdilution, NRS384 (USA300); format: cell-based; settings: Staphylococcus aureus
# Experimental: as §1
# [6] = test system: MRSA ATCC 43300; assay: MIC/MBC broth microdilution, MRSA ATCC 43300; format: cell-based, Staphylococcus aureus; settings: Staphylococcus aureus
# Experimental: as §1
# [7] = test system: VISA LIM 3 (NRS37); assay: MIC/MBC broth microdilution, NRS37 (VISA LIM 3); format: cell-based; settings: Staphylococcus aureus, Table 8, NRS37 (VISA); for MIC: read-out: MIC
# Experimental: as §1
# [8] = test system: NRS194; assay: MIC/MBC broth microdilution, NRS194; format: cell-based; settings: Staphylococcus aureus; for MIC: Table 8, read-out: MIC
# Experimental: as §1
# [9] = test system: NRS119; assay: MIC/MBC broth microdilution, NRS119; format: cell-based; settings: Staphylococcus aureus, Table 8, NRS119; for MIC: read-out: MIC
# Experimental: as §1
# [10] = test system: NRS107; assay: MIC/MBC broth microdilution, NRS107; format: cell-based; settings: Staphylococcus aureus; for MIC: Table 8, read-out: MIC
# Experimental: as §1
# [11] = Table 6, MRSA ATCC 43300, 128 μM down to 1.0 μM, 20 hours, read-out: MIC
# [12] = Table 8, NRS1 (VISA), triplicates, 20 hours, read-out: MIC
# [13] = Table 8, ATCC 43300, read-out: MIC
# [14] = Table 8, NRS19 (VISA), read-out: MIC
SMILES,"MIC [6, 11] [µM]",MIC [7] [µM],MIC [8] [µM],"MIC [1, 12] [µM]","MIC [6, 13] [µM]",MIC [9] [µM],"MIC [2, 14] [µM]","MIC ([3]; Table 8, NRS385, read-out: MIC) [µM]",MIC [10] [µM],"MIC ([4]; Table 8, NRS123, read-out: MIC) [µM]","MIC ([5]; Table 8, NRS384, read-out: MIC) [µM]",other results
CCCCCCCCCc1ccc(-c2nc(C)c(/C(C)=N/NC(=N)N)s2)cc1 [Compound 1f],,,,,,,,,,,,"MIC ([1]; Table 2, MRSA ATCC 700699, read-out: Minimum Inhibitory Concentration): 1.1 µg/mL; MIC ([2]; Table 2, VISA HIP07256, read-out: Minimum Inhibitory Concentration): 2.2 µg/mL; MIC ([3]; Table 2, MRSA USA500, read-out: Minimum Inhibitory Concentration): 4.4 µg/mL; MIC ([4]; Table 2, MRSA USA400, read-out: Minimum Inhibitory Concentration): 4.4 µg/mL; MIC ([5]; Table 2, MRSA USA300, read-out: Minimum Inhibitory Concentration): 2.2 µg/mL"
"C/C(=N\NC(=N)N)c1sc(-c2ccc(N)cc2)nc1C [Compound M2, (E)-2-(1-(2-(4-aminophenyl)-4-methylthiazol-5-yl)ethylidene)hydrazinecarboximidamide]",> 128,64,128,64,128,64,128,128,64,128,128,"MBC ([7]; read-out: MBC): 128 µM; MBC ([8]; Table 8, read-out: MBC): 128 µM; MBC ([1]; Table 8, NRS1 (VISA), read-out: MBC): 128 µM; MBC ([6]; Table 8, ATCC 43300, read-out: MBC): 128 µM; MBC ([9]; read-out: MBC): 64 µM; MBC ([2]; Table 8, NRS19 (VISA), read-out: MBC): 128 µM; MBC ([3]; Table 8, NRS385, read-out: MBC): 128 µM; MBC ([10]; Table 8, read-out: MBC): 64 µM; MBC ([4]; Table 8, NRS123, read-out: MBC): 128 µM; MBC ([5]; Table 8, NRS384, read-out: MBC): 128 µM"
"CC(=O)c1sc(-c2ccc(-c3ccc(O)cc3)cc2)nc1C [Compound M4, 1-(2-(4′-hydroxy-[1,1′-biphenyl]-4-yl)-4-methylthiazol-5-yl)ethanone]",> 128,,,,,,,,,,,
"CC(=O)c1sc(-c2ccc(-c3cc(C)cc(C)c3)cc2)nc1C [Compound M7, 1-(2-(3′,5′-dimethyl-[1,1′-biphenyl]-4-yl)-4-methylthiazol-5-yl)ethanone]",> 128,,,,,,,,,,,
"CC(=O)c1sc(-c2ccc(-c3ccc(F)cc3)cc2)nc1C [Compound M8, 1-(2-(4′-fluoro-[1,1′-biphenyl]-4-yl)-4-methylthiazol-5-yl)ethanone]",> 128,> 128,> 128,> 128,> 128,> 128,> 128,> 128,> 128,> 128,> 128,
"CC(=O)c1sc(-c2ccc(-c3ccc(C(F)(F)F)cc3)cc2)nc1C [Compound M10, 1-(4-methyl-2-(4′-(trifluoromethyl)-[1,1′-biphenyl]-4-yl)thiazol-5-yl)ethanone]",> 128,> 128,> 128,> 128,> 128,> 128,> 128,> 128,> 128,> 128,> 128,
"CC(=O)c1sc(-c2cccc(F)c2)nc1C [Compound M15, 1-(2-(3-fluorophenyl)-4-methylthiazol-5-yl)ethanone]",,,,,,,,,,,,MIC ([6]; 20 h): > 128 µM
CCCCCCCC#Cc1ccc(-c2nc(C)c(/C(C)=N\NC(=N)N/N=C(\C)c3sc(-c4ccc(C#CCCCCCCC)cc4)nc3C)s2)cc1 [Compound M18],,,,,,,,,,,,MIC ([6]; 20 h): > 128 µM

# Further lines, with some results ahead:
"MIC [6, 11] [µM]",MIC [7] [µM],MIC [8] [µM],"MIC [1, 12] [µM]","MIC [6, 13] [µM]",MIC [9] [µM],"MIC [2, 14] [µM]","MIC ([3]; Table 8, NRS385, read-out: MIC) [µM]",MIC [10] [µM],"MIC ([4]; Table 8, NRS123, read-out: MIC) [µM]","MIC ([5]; Table 8, NRS384, read-out: MIC) [µM]",SMILES,other results
> 128,,,,,,,,,,,CCCCc1ccc(-c2nc(C)c(/C(C)=N/NC(=N)N/N=C(\C)c3sc(-c4ccc(CCCC)cc4)nc3C)s2)cc1 [Compound M1],
> 128,,,,,,,,,,,C/C(=N\NC(=N)N/N=C(\C)c1sc(-c2ccc(N)cc2)nc1C)c1sc(-c2ccc(N)cc2)nc1C [Compound M3],
> 128,,,,,,,,,,,"C/C(=N/NC(=N)N)c1sc(-c2ccc(-c3ccc(O)cc3)cc2)nc1C [Compound M5, (Z)-2-(1-(2-(4′-hydroxy-[1,1′-biphenyl]-4-yl)-4-methylthiazol-5-yl)ethylidene)hydrazinecarboximidamide]",
> 128,> 128,> 128,> 128,> 128,> 128,> 128,> 128,> 128,> 128,> 128,"CC(=O)c1sc(-c2ccc(-c3cccc4ccccc34)cc2)nc1C [Compound M6, 1-(4-methyl-2-(4-(naphthalen-1-yl)phenyl)thiazol-5-yl)ethanone]",
> 128,> 128,> 128,> 128,> 128,> 128,> 128,> 128,> 128,> 128,> 128,"CC(=O)c1ccc(-c2ccc(-c3nc(C)c(C(C)=O)s3)cc2)cc1 [Compound M9, 1-(4′-(5-acetyl-4-methylthiazol-2-yl)-[1,1′-biphenyl]-4-yl)ethanone]",
